Test [1] deals with Tyrosine-protein kinase ABL1 (Homo sapiens, UniProt P00519). The experiment in a line: Selectivity interaction (KinomeScan (DiscoverX)) EUB0000607a ABL1. Particulars: at 10 µM.
The target of test [2] is T1, Serine/threonine-protein kinase Chk1 (Homo sapiens) (UniProt O14757).
T1 sequence (whole entry): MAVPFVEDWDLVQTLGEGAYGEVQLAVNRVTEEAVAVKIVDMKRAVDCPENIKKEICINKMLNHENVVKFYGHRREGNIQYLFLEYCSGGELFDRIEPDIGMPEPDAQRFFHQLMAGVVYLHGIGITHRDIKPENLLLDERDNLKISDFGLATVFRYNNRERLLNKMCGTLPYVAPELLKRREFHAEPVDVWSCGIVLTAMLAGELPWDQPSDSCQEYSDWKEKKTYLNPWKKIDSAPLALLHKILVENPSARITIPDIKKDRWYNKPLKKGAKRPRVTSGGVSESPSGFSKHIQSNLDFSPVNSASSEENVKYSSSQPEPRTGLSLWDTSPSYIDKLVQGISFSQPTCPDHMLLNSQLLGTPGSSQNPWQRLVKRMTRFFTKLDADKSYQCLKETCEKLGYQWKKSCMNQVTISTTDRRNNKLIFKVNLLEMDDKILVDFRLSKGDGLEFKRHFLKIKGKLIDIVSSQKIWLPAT
Particulars: at 10 µM.

In test [3] the target is T2, Serine/threonine-protein kinase TBK1 (Homo sapiens) (UniProt Q9UHD2).
T2 sequence (whole entry): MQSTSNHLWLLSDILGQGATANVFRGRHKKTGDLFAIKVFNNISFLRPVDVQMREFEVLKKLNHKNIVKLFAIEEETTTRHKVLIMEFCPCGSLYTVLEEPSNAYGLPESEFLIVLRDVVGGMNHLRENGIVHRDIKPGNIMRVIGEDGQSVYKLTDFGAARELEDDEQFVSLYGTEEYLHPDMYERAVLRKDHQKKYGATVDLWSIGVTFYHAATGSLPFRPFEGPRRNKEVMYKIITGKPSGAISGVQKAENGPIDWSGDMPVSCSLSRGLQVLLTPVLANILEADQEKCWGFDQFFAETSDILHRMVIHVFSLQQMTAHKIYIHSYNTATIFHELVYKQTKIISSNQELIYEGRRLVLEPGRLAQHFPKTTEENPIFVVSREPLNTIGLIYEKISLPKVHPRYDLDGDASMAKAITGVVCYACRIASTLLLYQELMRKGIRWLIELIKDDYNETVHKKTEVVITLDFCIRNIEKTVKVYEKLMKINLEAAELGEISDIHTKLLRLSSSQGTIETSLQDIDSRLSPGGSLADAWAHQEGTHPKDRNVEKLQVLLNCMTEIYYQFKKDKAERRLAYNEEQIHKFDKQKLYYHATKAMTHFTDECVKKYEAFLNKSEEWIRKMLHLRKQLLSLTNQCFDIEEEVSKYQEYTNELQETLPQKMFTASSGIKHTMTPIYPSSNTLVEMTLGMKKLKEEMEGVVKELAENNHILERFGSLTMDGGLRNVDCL
Particulars: at 10 µM.

Test [4] concerns the target Histone-lysine N-methyltransferase KMT5B (Homo sapiens) (UniProt Q4FZB7). Nature of the test: Selectivity interaction (Methyltransferase screen (Scintillation proximity assays)) EUB0000255b SUV420H1.
The target of test [5] is T3, Mitogen-activated protein kinase kinase kinase 5 (Homo sapiens) (UniProt Q99683).
T3 sequence (whole entry): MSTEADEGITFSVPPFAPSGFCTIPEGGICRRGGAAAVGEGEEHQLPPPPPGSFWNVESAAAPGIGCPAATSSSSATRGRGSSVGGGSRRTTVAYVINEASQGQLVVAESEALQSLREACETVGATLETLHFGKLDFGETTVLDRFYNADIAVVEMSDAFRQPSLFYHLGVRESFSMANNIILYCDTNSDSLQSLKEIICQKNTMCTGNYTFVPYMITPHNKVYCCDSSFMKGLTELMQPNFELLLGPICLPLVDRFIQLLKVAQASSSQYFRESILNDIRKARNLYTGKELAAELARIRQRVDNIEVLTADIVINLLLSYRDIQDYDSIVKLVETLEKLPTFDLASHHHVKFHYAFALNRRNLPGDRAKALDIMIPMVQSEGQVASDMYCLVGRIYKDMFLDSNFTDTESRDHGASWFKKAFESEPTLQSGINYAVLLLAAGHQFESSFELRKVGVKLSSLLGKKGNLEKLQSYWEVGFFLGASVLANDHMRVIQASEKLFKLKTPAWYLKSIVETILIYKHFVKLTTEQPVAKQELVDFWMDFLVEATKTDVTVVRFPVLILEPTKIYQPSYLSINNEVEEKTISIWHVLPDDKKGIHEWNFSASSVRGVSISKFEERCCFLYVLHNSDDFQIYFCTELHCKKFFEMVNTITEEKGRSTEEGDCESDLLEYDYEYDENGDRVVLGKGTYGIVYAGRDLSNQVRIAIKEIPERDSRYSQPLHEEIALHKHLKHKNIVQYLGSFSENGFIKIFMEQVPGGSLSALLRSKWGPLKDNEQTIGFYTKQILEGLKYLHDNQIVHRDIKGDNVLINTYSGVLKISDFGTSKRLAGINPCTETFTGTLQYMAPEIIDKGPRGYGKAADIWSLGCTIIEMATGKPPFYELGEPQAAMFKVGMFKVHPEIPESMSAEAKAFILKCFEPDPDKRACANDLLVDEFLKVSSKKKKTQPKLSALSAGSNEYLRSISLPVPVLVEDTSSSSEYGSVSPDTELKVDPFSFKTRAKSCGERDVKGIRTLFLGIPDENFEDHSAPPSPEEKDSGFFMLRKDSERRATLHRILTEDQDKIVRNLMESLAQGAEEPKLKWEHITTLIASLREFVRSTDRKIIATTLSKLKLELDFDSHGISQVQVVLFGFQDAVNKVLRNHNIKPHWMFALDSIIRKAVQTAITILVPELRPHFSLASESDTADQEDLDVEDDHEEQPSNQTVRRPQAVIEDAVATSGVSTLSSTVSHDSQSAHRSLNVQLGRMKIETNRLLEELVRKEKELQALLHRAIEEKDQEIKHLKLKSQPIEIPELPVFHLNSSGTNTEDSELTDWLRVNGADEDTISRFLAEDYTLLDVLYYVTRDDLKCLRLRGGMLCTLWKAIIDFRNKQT
Nature of the test: Selectivity interaction (KinomeScan (DiscoverX)) EUB0000595a MAP3K5. Particulars: at 10 µM.

Structures are written as SMILES.

Chain of Histone-lysine N-methyltransferase KMT5B (Homo sapiens) (Q4FZB7 whole entry, looked up): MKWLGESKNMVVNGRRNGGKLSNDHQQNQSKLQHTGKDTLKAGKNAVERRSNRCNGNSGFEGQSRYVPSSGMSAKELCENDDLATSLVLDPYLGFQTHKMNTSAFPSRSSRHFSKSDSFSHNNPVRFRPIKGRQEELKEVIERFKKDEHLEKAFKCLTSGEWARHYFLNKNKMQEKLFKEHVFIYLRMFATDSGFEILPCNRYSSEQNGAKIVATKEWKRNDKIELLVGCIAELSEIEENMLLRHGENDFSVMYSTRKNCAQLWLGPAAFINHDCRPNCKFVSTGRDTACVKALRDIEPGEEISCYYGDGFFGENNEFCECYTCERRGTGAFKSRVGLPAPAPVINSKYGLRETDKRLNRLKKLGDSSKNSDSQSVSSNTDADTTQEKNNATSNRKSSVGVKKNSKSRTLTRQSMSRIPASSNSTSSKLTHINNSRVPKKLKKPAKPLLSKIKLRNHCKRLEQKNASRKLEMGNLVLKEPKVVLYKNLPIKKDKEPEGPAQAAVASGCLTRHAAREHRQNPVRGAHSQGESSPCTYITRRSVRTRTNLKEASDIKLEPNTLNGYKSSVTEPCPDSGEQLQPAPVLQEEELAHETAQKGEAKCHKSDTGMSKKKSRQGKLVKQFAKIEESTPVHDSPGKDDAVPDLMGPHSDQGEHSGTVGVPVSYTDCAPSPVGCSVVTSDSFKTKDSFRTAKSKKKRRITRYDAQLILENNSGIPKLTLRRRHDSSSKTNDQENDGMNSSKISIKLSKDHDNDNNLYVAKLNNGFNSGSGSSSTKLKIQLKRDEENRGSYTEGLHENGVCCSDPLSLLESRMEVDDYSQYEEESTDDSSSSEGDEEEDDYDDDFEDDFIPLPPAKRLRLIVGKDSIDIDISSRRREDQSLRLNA
Chain of Tyrosine-protein kinase ABL1 (P00519 whole entry): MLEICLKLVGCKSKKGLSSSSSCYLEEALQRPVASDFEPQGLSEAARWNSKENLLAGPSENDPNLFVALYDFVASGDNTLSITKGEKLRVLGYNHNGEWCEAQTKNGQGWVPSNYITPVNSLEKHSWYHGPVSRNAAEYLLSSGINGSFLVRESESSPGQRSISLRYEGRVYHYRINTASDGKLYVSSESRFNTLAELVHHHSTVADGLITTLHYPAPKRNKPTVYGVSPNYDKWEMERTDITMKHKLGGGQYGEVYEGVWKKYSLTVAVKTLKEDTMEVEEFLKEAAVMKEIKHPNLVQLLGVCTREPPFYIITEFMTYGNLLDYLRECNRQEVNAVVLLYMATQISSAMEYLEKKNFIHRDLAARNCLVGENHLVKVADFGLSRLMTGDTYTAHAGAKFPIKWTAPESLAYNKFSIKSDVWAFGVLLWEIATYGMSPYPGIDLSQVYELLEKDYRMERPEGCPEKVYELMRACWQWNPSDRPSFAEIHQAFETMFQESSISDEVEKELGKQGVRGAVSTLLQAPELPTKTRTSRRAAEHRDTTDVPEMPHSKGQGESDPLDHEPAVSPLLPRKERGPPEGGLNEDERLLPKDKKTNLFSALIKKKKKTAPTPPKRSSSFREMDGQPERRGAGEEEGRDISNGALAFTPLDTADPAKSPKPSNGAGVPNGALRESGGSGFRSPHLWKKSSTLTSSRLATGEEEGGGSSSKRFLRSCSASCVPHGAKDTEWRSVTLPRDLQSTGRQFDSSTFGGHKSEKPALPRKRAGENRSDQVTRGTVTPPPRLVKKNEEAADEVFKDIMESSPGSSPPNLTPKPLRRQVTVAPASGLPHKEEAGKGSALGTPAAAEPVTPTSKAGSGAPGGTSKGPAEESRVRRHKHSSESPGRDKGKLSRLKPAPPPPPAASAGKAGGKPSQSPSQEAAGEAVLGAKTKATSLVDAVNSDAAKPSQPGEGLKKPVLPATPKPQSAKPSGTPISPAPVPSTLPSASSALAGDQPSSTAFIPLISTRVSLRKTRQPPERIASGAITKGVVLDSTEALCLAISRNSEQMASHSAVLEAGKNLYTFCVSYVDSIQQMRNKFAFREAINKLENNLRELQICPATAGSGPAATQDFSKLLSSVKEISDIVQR

As to `CNC(=O)Nc1ccc(-c2nc(N3CC4CCC(C3)O4)c3cnn(C4CCC5(CC4)OCCO5)c3n2)cc1`, the % of control in test [1] turned out to be 100%. Take `Cc1cc([C@@H](C)Nc2ccccc2C(=O)O)c2nc(N3CCOCC3)cc(=O)n2c1` [AZD-6482]: the % of control in test [2] and in test [3] was 100% in each case. As to `COCCN1CCC(c2cc(CN(C)C(=O)c3cccc(Oc4ccccc4)c3)ccn2)CC1`, the % activity in test [4] (at 1 µM) was above 95%; in test [4] (at 10 µM), above 90%. Compound `COCC(=O)NC/C=C/c1ccc2ncnc(Nc3ccc(Oc4ccc(C)nc4)c(C)c3)c2c1` [CP-724714] had a % of control in test [5] of 90%.
